Earlier results, collected in patent publication US20050266049A1, “Method for the covering of food with polyene antifungal compositions” (D S M IP Assets B.V., priority 2002, published 2005).

Compound: C[C@@H]1C/C=C/C=C/C=C/C=C/[C@H](O[C@@H]2O[C@H](C)[C@@H](O)[C@H](N)[C@@H]2O)C[C@@H]2O[C@](O)(C[C@@H](O)C[C@H]3O[C@@H]3/C=C/C(=O)O1)C[C@H](O)[C@H]2C(=O)O [natamycin]
- solubility of natamycin in water: 30-50 ppm
- Minimal Inhibitory Concentration (MIC) (most foodborn fungi): less than 10 ppm
